Results: BindingDB's records for doi:10.1016/j.bmc.2014.04.022 (Tohoku Pharmaceutical University, 2014)

How the values were obtained:
[1] = Agonist activity at estrogen receptor in human MCF7 cells assessed as induction of cell proliferation after 5 days by WST-8 assay
[2] = Antagonist activity at estrogen receptor in human MCF7 cells assessed as inhibition of estradiol-induced cell proliferation after 5 days by WST-8 assay

EC50 [1]: 16 nM | IC50 [2]: 1060 nM
Compound: CN(C)CCOc1ccc(C23CC4CC(CC(c5ccc(O)cc5)(C4)C2)C3)cc1
